Measurements taken from ChEMBL document CHEMBL5724914, “Linking interpersonal differences in gut microbiota composition and drug biotransformation activity” (2024).

Legend:
[1] = (§1) The drug is tested on Z-029 corresponding to rat gut metagenome with ENA study accession number: PRJEB37062 and ENA sample accession number: ERS12561828 for biotransformation under anaerobic condition. The drug concentrations were measured over 9 timepoints collected between 0 and 24 hours of incubation by liquid-chromatography-coupled mass spectrometry (LC–MS); settings: 2 µM
[2] = as §1, with “Z-019” for “Z-029”, “ERS12561818” for “ERS12561828”; settings: 2 µM
[3] = as §1, with “on Z-011” for “on Z-029”, “to mouse” for “to rat”, “number: ERS12561811” for “number: ERS12561828”; settings: 2 µM
[4] = as §1, with “Z-010” for “Z-029”, “to” for “to rat gut”, “ERS12561810” for “ERS12561828”; settings: 2 µM
[5] = as §1, with “Z-007” for “Z-029”, “ERS12561807” for “ERS12561828”; settings: 2 µM
[6] = as §1, with “on Z-003” for “on Z-029”, “to pig” for “to rat”, “number: ERS12561803” for “number: ERS12561828”; settings: 2 µM
[7] = as §1, with “on WLS-310” for “on Z-029”, “to human” for “to rat”, “number: ERS12561785” for “number: ERS12561828”; settings: 2 µM
[8] = as §1, with “on WLS-090” for “on Z-029”, “to human” for “to rat”, “number: ERS12561753” for “number: ERS12561828”; settings: 2 µM
[9] = as §1, with “on WLS-086” for “on Z-029”, “to human” for “to rat”, “number: ERS12561752” for “number: ERS12561828”; settings: 2 µM
[10] = as §1, with “on WLS-077” for “on Z-029”, “to human” for “to rat”, “number: ERS12561750” for “number: ERS12561828”; settings: 2 µM
[11] = as §1, with “on WLS-039” for “on Z-029”, “to human” for “to rat”, “number: ERS12561746” for “number: ERS12561828”; settings: 2 µM
[12] = human gut metagenome, 24 h, 2 µM
[13] = human gut metagenome, 24 h, 2 µM; remark: listed apart in the source
[14] = human gut metagenome, 24 h, 2 µM; remark: listed apart in the source
[15] = human gut metagenome, 24 h, 2 µM; remark: listed apart in the source
[16] = human gut metagenome, 24 h, 2 µM; remark: listed apart in the source
[17] = human gut metagenome, 24 h, 2 µM; remark: listed apart in the source
[18] = human gut metagenome, 24 h, 2 µM; remark: listed apart in the source
[19] = human gut metagenome, 24 h, 2 µM; remark: listed apart in the source
[20] = human gut metagenome, 24 h, 2 µM; remark: listed apart in the source
Further: call rule not given here.

Row | SMILES | Bacterial Biotransformation [1] | Bacterial Biotransformation [2] | Bacterial Biotransformation [3] | Bacterial Biotransformation [4] | Bacterial Biotransformation [5] | Bacterial Biotransformation [6] | Bacterial Biotransformation [7] | Bacterial Biotransformation [8] | Bacterial Biotransformation [9] | Bacterial Biotransformation [10] | Bacterial Biotransformation [11] | Bacterial Biotransformation [12] | Bacterial Biotransformation [13] | Bacterial Biotransformation [14] | Bacterial Biotransformation [15] | Bacterial Biotransformation [16] | Bacterial Biotransformation [17] | Bacterial Biotransformation [18] | Bacterial Biotransformation [19] | Bacterial Biotransformation [20]
1 | CC1=C(CC(=O)O)c2cc(F)ccc2/C1=C\c1ccc([S+](C)[O-])cc1 (stereo unspecified) | Compound metabolized | Compound NOT metabolized | Compound NOT metabolized | Compound NOT metabolized | Compound NOT metabolized | Compound NOT metabolized | Compound metabolized | Compound metabolized | Compound metabolized | Compound metabolized | Compound metabolized | Compound metabolized | Compound metabolized | Compound metabolized | Compound metabolized | Compound metabolized | Compound metabolized | Compound metabolized | Compound metabolized | Compound NOT metabolized
2 | C[C@]12C=CC(=O)C=C1CC[C@@H]1[C@@H]2C(=O)C[C@@]2(C)[C@H]1CC[C@]2(O)C(=O)CO [PREDNISONE] | Compound metabolized | Compound NOT metabolized | Compound NOT metabolized | Compound metabolized | Compound NOT metabolized | Compound metabolized | Compound metabolized | Compound metabolized | Compound metabolized | Compound metabolized | Compound metabolized | Compound metabolized | Compound metabolized | Compound metabolized | Compound metabolized | – | Compound metabolized | Compound metabolized | Compound NOT metabolized | Compound metabolized
3 | CN(C/C=C/C#CC(C)(C)C)Cc1cccc2ccccc12 [TERBINAFINE] | Compound NOT metabolized | – | Compound NOT metabolized | Compound NOT metabolized | Compound NOT metabolized | Compound NOT metabolized | Compound metabolized | Compound NOT metabolized | Compound metabolized | – | – | – | Compound NOT metabolized | Compound NOT metabolized | Compound NOT metabolized | Compound NOT metabolized | Compound NOT metabolized | Compound NOT metabolized | Compound NOT metabolized | Compound metabolized
4 | N#Cc1ccc2[nH]cc(CCCCN3CCN(c4ccc5oc(C(N)=O)cc5c4)CC3)c2c1 [VILAZODONE] | Compound NOT metabolized | Compound NOT metabolized | Compound metabolized | Compound metabolized | Compound NOT metabolized | Compound metabolized | Compound metabolized | Compound metabolized | Compound metabolized | Compound metabolized | Compound metabolized | Compound metabolized | Compound metabolized | Compound metabolized | Compound metabolized | Compound metabolized | Compound metabolized | Compound metabolized | – | –

Results, then the compound that gave them:

Row | Bacterial Biotransformation [1] | Bacterial Biotransformation [2] | Bacterial Biotransformation [3] | Bacterial Biotransformation [4] | Bacterial Biotransformation [5] | Bacterial Biotransformation [6] | Bacterial Biotransformation [7] | Bacterial Biotransformation [8] | Bacterial Biotransformation [9] | Bacterial Biotransformation [10] | Bacterial Biotransformation [11] | Bacterial Biotransformation [12] | Bacterial Biotransformation [13] | Bacterial Biotransformation [14] | Bacterial Biotransformation [15] | Bacterial Biotransformation [16] | Bacterial Biotransformation [17] | Bacterial Biotransformation [18] | Bacterial Biotransformation [19] | Bacterial Biotransformation [20] | SMILES
5 | Compound NOT metabolized | Compound NOT metabolized | Compound NOT metabolized | Compound NOT metabolized | Compound NOT metabolized | Compound NOT metabolized | Compound metabolized | Compound metabolized | Compound metabolized | Compound NOT metabolized | Compound metabolized | Compound NOT metabolized | Compound metabolized | Compound metabolized | Compound metabolized | Compound metabolized | Compound NOT metabolized | Compound NOT metabolized | Compound NOT metabolized | Compound metabolized | CN1CCC(OC(c2ccccc2)c2ccccc2)CC1
6 | Compound NOT metabolized | Compound NOT metabolized | Compound NOT metabolized | Compound NOT metabolized | Compound NOT metabolized | Compound metabolized | Compound metabolized | Compound metabolized | Compound metabolized | Compound metabolized | Compound metabolized | Compound NOT metabolized | Compound metabolized | Compound metabolized | Compound metabolized | Compound metabolized | Compound metabolized | Compound metabolized | Compound NOT metabolized | Compound metabolized | CCOC(=O)[C@H](CCc1ccccc1)N[C@@H](C)C(=O)N1Cc2ccccc2C[C@H]1C(=O)O
7 | – | Compound NOT metabolized | Compound NOT metabolized | Compound NOT metabolized | Compound NOT metabolized | Compound NOT metabolized | Compound metabolized | Compound metabolized | Compound metabolized | Compound NOT metabolized | Compound NOT metabolized | Compound NOT metabolized | Compound metabolized | Compound NOT metabolized | Compound metabolized | Compound metabolized | Compound metabolized | Compound NOT metabolized | Compound NOT metabolized | Compound NOT metabolized | O=C1N=C([O-])NC1(c1ccccc1)c1ccccc1.[Na+] [PHENYTOIN SODIUM]
8 | Compound metabolized | – | Compound metabolized | Compound metabolized | Compound metabolized | Compound metabolized | Compound metabolized | Compound metabolized | Compound metabolized | Compound metabolized | Compound metabolized | Compound metabolized | Compound metabolized | Compound metabolized | Compound metabolized | Compound metabolized | Compound metabolized | Compound metabolized | Compound metabolized | Compound metabolized | O=C(O)c1cc(/N=N/c2ccc(S(=O)(=O)Nc3ccccn3)cc2)ccc1O [SULFASALAZINE]
